Reference: patent publication US20230212180A1, “SUBSTITUTED PYRAZINE COMPOUND, PHARMACEUTICAL COMPOSITION COMPRISING SAME, AND USE THEREOF” (Sichuan Kelun-Biotech Biopharmaceutical Co., Ltd., priority 2020, published 2023)
Read-outs that look alike come from different tables or passages of the source.

How the values were obtained:
[1] = target: T1, hERG (Homo sapiens, UniProt Q12809); assay: Biochemical assay for hERG inhibition (Predictor hERG Fluorescence Polarization Assay Kit); assay type: binding
T1 construct: purchased ThermoFisher
Description: Test Example 3: Biochemical Assay for hERG Inhibition
kit: Predictor™ hERG Fluorescence Polarization Assay Kit (ThermoFisher) containing:
Compound E4031 as a positive control;
tracer concentration: 1 nM;
incubation duration: 2 hours;
parameters for microplate reader: BMG PHERAstar FS fluorescence microplate reader.
Test group: The test compounds at different concentrations were added into a microplate containing hERG cell membrane, and the tracer with a high affinity for hERG was then added into each well. The microplate was incubated at 25° C. for 2 hours before detection of the change in fluorescence polarization value (mP) (excitation wavelength: 540 nm; emission wavelength: 590 nm) using a multi-mode microplate reader.
Positive control group: The experimental method for the positive control group was the same as that for the test group, except that the test compound was replaced with 30 μM Compound E4031.
Blank control group: The experimental method for the blank control group was the same as that for the test group, except that the test compound was replaced with the hERG buffer and that the hERG cell membrane was not added.
Based on the data ratios, the percentage inhibition (%) of the compounds of the present disclosure against hERG at different concentrations was calculated and the range of the half maximal inhibitory concentration (IC50) of the compounds was determined. Percentage inhibition (%)=(1−(mP of the test compound−mP of the positive control group)/(mP of the blank control group−mP of the positive control group))×100%.

[2] = target: T2, CYP1A2 (Homo sapiens, UniProt P05177); assay: Biochemical assay for CYP enzyme inhibition, P450-Glo CYP1A2 Screening System; assay type: in vitro ADME
T2 construct: purchased Promega
T2 sequence (P05177 1-516): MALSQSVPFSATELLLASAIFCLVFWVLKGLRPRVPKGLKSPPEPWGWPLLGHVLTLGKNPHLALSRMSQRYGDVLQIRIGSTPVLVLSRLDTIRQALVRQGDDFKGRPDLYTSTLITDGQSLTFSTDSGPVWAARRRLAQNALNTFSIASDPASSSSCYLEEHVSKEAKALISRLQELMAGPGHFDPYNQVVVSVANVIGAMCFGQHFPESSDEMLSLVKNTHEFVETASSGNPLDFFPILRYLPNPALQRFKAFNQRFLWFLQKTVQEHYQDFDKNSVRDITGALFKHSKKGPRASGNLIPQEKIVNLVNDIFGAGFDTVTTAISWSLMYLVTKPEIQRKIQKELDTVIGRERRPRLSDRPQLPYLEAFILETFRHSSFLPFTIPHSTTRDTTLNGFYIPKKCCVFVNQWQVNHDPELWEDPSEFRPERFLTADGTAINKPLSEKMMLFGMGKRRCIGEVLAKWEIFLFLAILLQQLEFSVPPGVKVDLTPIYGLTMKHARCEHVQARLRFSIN
Description: (§1) Test Example 5: Biochemical Assay for CYP Enzyme (Cytochrome P450) Inhibition
P450-Glo™ CYP1A2 Screening System, (Promega);
(§2) BMG PHERAstar FS Luminescent.
(§3) The experiments were carried out separately according to the instructions of the kits. The steps were as follows:
3.1. Inhibition Against CYP1A2:
(§4) Test group: The test compounds at different concentrations were added into a microplate, and Luciferin-ME (100 μM), K3PO4 (100 mM), and CYP1A2 (0.01 μmol/μL) were added into each well, and pre-incubated at room temperature for 10 min. Thereafter, an NADPH regeneration system was added. The mixture was reacted at room temperature for 30 min. Finally, an equal volume of detection buffer was added and incubated at room temperature for 20 min, followed by chemiluminescence detection.
(§5) Negative control group: The experimental method for the negative control group was the same as that for the test group, except that the test compound was not added.
Blank control group: The experimental method for the blank control group was the same as that for the test group, except that the test compound was not added and that CYP1A2 was replaced with CYP1A2 Membrance (0.01 μmol/μL).
(§6) Percentage inhibition=(1−(the chemiluminescent signal value of the test compound group at a certain test concentration−the chemiluminescent signal value of the blank control group)/(the chemiluminescent signal value of the negative control group−the chemiluminescent signal value of the blank control group))×100%.
(§7) When the percentage inhibition was between 30% and 80%, a single value or a value range of the half maximal inhibitory concentration (IC50) of the compound against the CYP enzyme was estimated based on the following equation: IC50=X×(1−percentage inhibition)/percentage inhibition, wherein X was the test concentration of the compound.

[3] = tested on: NCI-H358 cell (human non-small cell lung cancer cell); assay: Inhibition of the proliferation activity of NCI-H358 cell (CellTiter-Glo); assay type: cell-based; conditions: 120 h, 5 days
Description: Test Example 4: Experiment on the Inhibition of the Proliferation Activity of NCI-H358 Cell (Human Non-Small Cell Lung Cancer Cell)
cell: NCI-H358 (Nanjing CoBioer);
kit: CellTiter-Glo® Luminescent Cell Viability Assay Kit (Promega).
inoculation amount of cell: 1500 cells/well;
incubation conditions for compounds: 37° C., 5% CO2;
incubation duration: 5 days;
detecting temperature: room temperature;
chemiluminescence detection using the BMG PHERAstar FS reader.
Cells were cultured in a medium containing 10% fetal bovine serum under the culture conditions of 37° C. and 5% CO2. An appropriate amount of cells were plated into a 96-well plate and cultured overnight in an incubator to allow the cells to adhere to the wall. The following day, the medium was removed and a complete medium containing a pre-diluted compound was added and incubated at 37° C. for 5 days. On the fifth day, the detection reagent CellTiter-Glo® was added into each well. Chemiluminescence was adopted to detect the relative luminescence units (RLUs) of the wells.
The result of a well containing cell-free medium, treated with CellTiter-Glo®, was obtained as the blank value. Cell viability (%)=(sample RLU−blank RLU)/(vehicle RLU−blank RLU)×100%, and maximum inhibition rate (%)=100%−cell viabilitymax. conc. (%). The half maximal inhibitory concentration (IC50) of the compound was calculated by fitting the curve according to the four-parameter logistic model.

[4] = target: T3, CYP3A4 (Homo sapiens, UniProt P08684); assay: Biochemical assay for CYP enzyme inhibition, P450-Glo CYP3A4 Screening System; assay type: in vitro ADME
T3 construct: purchased Promega
Description: as §1
P450-Glo™ CYP3A4 Screening System, (Promega).
as §2, §3
3.3. Inhibition Against CYP3A4:
as §4, with “Luciferin-IPA ([…]),” for “Luciferin-ME (100 μM),”, “CYP3A4 (2 nM)” for “CYP1A2 (0.01 μmol/μL)”
as §5
Blank control group: The experimental method for the blank control group was the same as that for the test group, except that the test compound was not added and that CYP3A4 was replaced with CYP3A4 Membrance (2 nM).
as §6, §7

[5] = tested on: KYSE-520 cell (human esophageal squamous cell carcinoma cell); assay: Inhibition of the proliferation activity of KYSE-520 cell (CellTiter-Glo); assay type: cell-based; conditions: 120 h, KYSE-520 cell proliferation, 5 days
In short: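 KYSE-520 cells, 1500/well, adhered overnight, then exposed to compound in complete medium with 10% FBS for 5 days at 37° C, 5% CO2. Viability by CellTiter-Glo luminescence, blank-corrected against cell-free medium and normalised to vehicle. IC50 from four-parameter logistic fit.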

[6] = estimated from percentage inhibition, read-out: IC50 (μM) CYP3A4

T1 sequence (Q12809 whole entry): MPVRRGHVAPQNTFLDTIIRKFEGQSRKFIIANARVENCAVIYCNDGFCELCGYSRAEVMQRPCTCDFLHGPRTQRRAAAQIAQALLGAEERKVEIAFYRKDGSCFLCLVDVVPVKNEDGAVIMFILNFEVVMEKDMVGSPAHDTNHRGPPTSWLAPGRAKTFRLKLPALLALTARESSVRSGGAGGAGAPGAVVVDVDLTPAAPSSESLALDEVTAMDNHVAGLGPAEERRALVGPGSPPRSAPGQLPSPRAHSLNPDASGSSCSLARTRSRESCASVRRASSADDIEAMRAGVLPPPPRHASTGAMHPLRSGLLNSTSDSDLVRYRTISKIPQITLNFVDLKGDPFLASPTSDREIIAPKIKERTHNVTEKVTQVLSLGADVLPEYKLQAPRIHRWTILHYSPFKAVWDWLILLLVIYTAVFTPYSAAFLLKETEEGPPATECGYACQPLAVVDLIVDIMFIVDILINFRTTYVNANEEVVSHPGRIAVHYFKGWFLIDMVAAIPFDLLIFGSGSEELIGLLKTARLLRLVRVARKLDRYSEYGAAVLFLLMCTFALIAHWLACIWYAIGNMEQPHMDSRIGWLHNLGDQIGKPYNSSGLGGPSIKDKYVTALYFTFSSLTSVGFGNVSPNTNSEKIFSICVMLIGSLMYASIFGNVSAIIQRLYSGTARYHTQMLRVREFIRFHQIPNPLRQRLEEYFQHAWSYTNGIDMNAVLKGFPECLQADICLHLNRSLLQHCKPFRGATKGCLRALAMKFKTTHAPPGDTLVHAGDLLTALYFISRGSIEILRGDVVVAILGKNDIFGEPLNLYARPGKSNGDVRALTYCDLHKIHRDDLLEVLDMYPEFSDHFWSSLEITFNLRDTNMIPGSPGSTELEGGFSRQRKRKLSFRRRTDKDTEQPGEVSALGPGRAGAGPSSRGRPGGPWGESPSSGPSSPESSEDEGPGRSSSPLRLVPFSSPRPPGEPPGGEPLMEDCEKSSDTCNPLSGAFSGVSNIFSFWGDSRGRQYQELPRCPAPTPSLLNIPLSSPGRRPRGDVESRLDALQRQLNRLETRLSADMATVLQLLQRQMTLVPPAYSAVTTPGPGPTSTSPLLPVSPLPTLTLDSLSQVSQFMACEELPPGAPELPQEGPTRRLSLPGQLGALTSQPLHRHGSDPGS
T3 sequence (P08684 whole entry): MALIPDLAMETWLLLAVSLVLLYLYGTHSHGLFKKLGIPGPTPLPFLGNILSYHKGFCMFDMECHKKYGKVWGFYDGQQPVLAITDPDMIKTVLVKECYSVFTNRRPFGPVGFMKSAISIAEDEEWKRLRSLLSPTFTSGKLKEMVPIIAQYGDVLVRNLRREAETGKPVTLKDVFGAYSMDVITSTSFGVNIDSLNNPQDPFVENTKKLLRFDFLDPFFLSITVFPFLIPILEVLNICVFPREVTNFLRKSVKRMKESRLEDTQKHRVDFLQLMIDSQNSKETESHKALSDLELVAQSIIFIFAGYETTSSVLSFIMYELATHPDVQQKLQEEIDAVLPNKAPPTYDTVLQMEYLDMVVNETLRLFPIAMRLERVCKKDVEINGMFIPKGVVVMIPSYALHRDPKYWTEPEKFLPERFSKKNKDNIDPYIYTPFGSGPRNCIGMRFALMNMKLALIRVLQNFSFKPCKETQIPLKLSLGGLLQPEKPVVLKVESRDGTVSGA

## CC(C)(O)C1CN(c2nccc(Sc3ncc(N4CCC5(CC4)Cc4ncccc4[C@H]5N)nc3N)c2Cl)C1 [Example 46, (S)-2-(1-(4-(3-amino-5-(5-amino-5,7-dihydrospiro[cyclopenta[b]pyridine-6,4′-piperidin]-1′-yl)pyrazin-2-ylthio)-3-chloropyridin-2-yl)azetidin-3-yl)propan-2-ol]
[1]; competition with affinity tracer 1 nM, 2 hours, read-out: IC50 (μM), hERG inhibition assay
  IC50: > 10 µM
[2]; estimated from percentage inhibition, read-out: IC50 (μM) CYP1A2
  IC50: > 10 µM
[3]
  IC50: 28 nM
[4]; [6]
  IC50: > 10 µM
[5]
  IC50: 70 nM

## C[C@@H]1OCC2(CCN(c3ncc(Sc4ccnc(N5CC(CS(C)(=O)=O)C5)c4Cl)nc3CO)CC2)[C@@H]1N [Example 26, (3-((3S,4S)-4-amino-3-methyl-2-oxa-8-azaspiro[4.5]decan-8-yl)-6-(3-chloro-2-(3-(methylsulfonylmethyl)azetidin-1-yl)pyridin-4-ylthio)pyrazin-2-yl)methanol]
[1]
  IC50: > 10 µM
[2]
  IC50: > 10 µM
[3]
  IC50: 32 nM
[4]
  IC50: > 10 µM
[5]
  IC50: 30 nM

## C[C@@H]1OCC2(CCN(c3ncc(Sc4ccnc(N5CC(C#N)(CO)C5)c4Cl)nc3CO)CC2)[C@@H]1N [Example 47, 1-(4-(5-((3S,4S)-4-amino-3-methyl-2-oxa-8-azaspiro[4.5]decan-8-yl)-6-(hydroxymethyl)pyrazin-2-ylthio)-3-chloropyridin-2-yl)-3-(hydroxymethyl)azetidine-3-carbonitrile]
[1]
  IC50: > 10 µM
[2]
  IC50: > 10 µM
[3]
  IC50: 23 nM
[4]
  IC50: > 10 µM
[5]
  IC50: 40 nM

## C[C@@H]1OCC2(CCN(c3ncc(Sc4ccnc(N5CC(C)(CS(C)(=O)=O)C5)c4Cl)nc3CO)CC2)[C@@H]1N [Example 29, (3-((3S,4S)-4-amino-3-methyl-2-oxa-8-azaspiro[4.5]decan-8-yl)-6-(3-chloro-2-(3-methyl-3-(methylsulfonylmethyl)azetidin-1-yl)pyridin-4-ylthio)pyrazin-2-yl)methanol]
[1]
  IC50: > 10 µM
[2]
  IC50: > 10 µM
[3]
  IC50: 40 nM
[4]
  IC50: > 10 µM
[5]
  IC50: 40 nM

## C[C@@H]1OCC2(CCN(c3ncc(Sc4ccnc(N5CC(C(C)(C)O)C5)c4Cl)nc3CO)CC2)[C@@H]1N [Example 12, 2-(1-(4-(5-((3S,4S)-4-amino-3-methyl-2-oxa-8-azaspiro[4.5]decan-8-yl)-6-(hydroxymethyl)pyrazin-2-ylthio)-3-chloropyridin-2-yl)azetidin-3-yl)propan-2-ol]
[1]
  IC50: > 10 µM
[2]
  IC50: > 10 µM
[3]
  IC50: 18 nM
[4]
  IC50: > 10 µM
[5]
  IC50: 40 nM

## C[C@@H]1OCC2(CCN(c3ncc(Sc4ccnc(NCC5(O)CC5)c4Cl)nc3CO)CC2)[C@@H]1N [Example 15, 1-((4-(5-((3S,4S)-4-amino-3-methyl-2-oxa-8-azaspiro[4.5]decan-8-yl)-6-(hydroxymethyl)pyrazin-2-ylthio)-3-chloropyridin-2-ylamino)methyl)cyclopropan-1-ol]
[1]
  IC50: > 10 µM
[2]
  IC50: > 10 µM
[3]
  IC50: 40 nM
[4]
  IC50: > 10 µM
[5]
  IC50: 40 nM

## C[C@@H]1OCC2(CCN(c3ncc(Sc4ccnc(N5CC(CO)(CF)C5)c4Cl)nc3CO)CC2)[C@@H]1N [Example 42, (3-((3S,4S)-4-amino-3-methyl-2-oxa-8-azaspiro[4.5]decan-8-yl)-6-(3-chloro-2-(3-(fluoromethyl)-3-(hydroxymethyl)azetidin-1-yl)pyridin-4-ylthio)pyrazin-2-yl)methanol]
[1]
  IC50: > 10 µM
[2]
  IC50: > 10 µM
[3]
  IC50: 44 nM
[4]; [6]
  IC50: > 10 µM
[5]
  IC50: 100 nM

## C[C@@H]1OCC2(CCN(c3ncc(Sc4ccnc(N5CCCC5CC(N)=O)c4Cl)nc3CO)CC2)[C@@H]1N (stereo partly drawn) [Example 19, 2-(1-(4-(5-((3S,4S)-4-amino-3-methyl-2-oxa-8-azaspiro[4.5]decan-8-yl)-6-(hydroxymethyl)pyrazin-2-ylthio)-3-chloropyridin-2-yl)pyrrolidin-2-yl)acetamide]
[1]
  IC50: > 10 µM
[2]
  IC50: > 10 µM
[3]
  IC50: 220 nM
[4]; [6]
  IC50: > 10 µM
[5]
  IC50: 190 nM

## C[C@@H]1OCC2(CCN(c3ncc(Sc4ccnc(N5CC(C)(CO)C5)c4Cl)nc3CO)CC2)[C@@H]1N [Example 27, (3-((3S,4S)-4-amino-3-methyl-2-oxa-8-azaspiro[4.5]decan-8-yl)-6-(3-chloro-2-(3-(hydroxymethyl)-3-methylazetidin-1-yl)pyridin-4-ylthio)pyrazin-2-yl)methanol]
[1]
  IC50: > 10 µM
[2]
  IC50: > 10 µM
[3]
  IC50: 30 nM
[4]
  IC50: > 10 µM
[5]
  IC50: 60 nM
